Measured values reported in patent US20230081426A1, “COMPOUNDS AND METHODS FOR KRAS MODULATION AND INDICATIONS THEREFOR” (Plexxikon Inc., priority 2020, published 2023).

Assays:
[1] = molecular target: T1, G12D-mutant human KRAS (amino acid residues 1-188) (Homo sapiens, UniProt P01116, G12D); assay: KRAS Binding Disruption Assay (AlphaScreen; biotinylated KRpep-2d analogue or RAF1-RBD), G12D; conditions: KRAS G12D; geometric mean; read-out: KRAS GMean IC50 (uM) MUTATION: G12D
T1 construct: G12D or G12C-mutant human KRAS (amino acid residues 1-188) with FLAG tag; made in house; host or cells: E. coli
Summary of the method: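 Mutant KRAS (5-20 nM) incubated 1 h at 25° C with test compound and 5-20 nM biotinylated KRpep-2d analogue or RAF1-RBD in 20 mM HEPES pH 7.5, 100 mM NaCl, 5 mM MgCl2, 0.01% Tween-20, 0.01% BSA.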

[2] = molecular target: T2, G12V-mutant human KRAS (amino acid residues 1-188) (Homo sapiens, UniProt P01116, G12V); assay: KRAS Binding Competition Assay (AlphaScreen; biotinylated KRpep-2d analogue), G12V; conditions: geometric mean, read-out: KRAS GMean IC50 (uM) MUTATION: G12V
T2 construct: G12V-mutant human KRAS (amino acid residues 1-188) with FLAG tag was purified from E. coli; made in house; host or cells: E. coli

SMILES | IC50 [1] [µM] | IC50 [2] [µM]
CN1CCC[C@H]1COc1nc(N2C[C@H]3CC[C@@H](C2)N3CC(=O)N2CCC(N)CC2)c2ccc(-c3cc(O)cc4ccccc34)c(F)c2n1 [P-0427, 1-(4-aminopiperidin-1-yl)-2-((1R,5S)-3-(8-fluoro-7-(3-hydroxynaphthalen-1-yl)-2-(((S)-1-methylpyrrolidin-2-yl)methoxy)quinazolin-4-yl)-3,8-diazabicyclo[3.2.1]octan-8-yl)ethan-1-one] | 10 to 100 | 100 to 1000
Cc1n[nH]c2cccc(-c3ccc4c(N5C[C@H]6CC[C@@H](C5)N6)nc(OC[C@@H]5CCCN5C)nc4c3)c12 [P-0172, 4-((1R,5S)-3,8-diazabicyclo[3.2.1]octan-3-yl)-7-(3-methyl-1H-indazol-4-yl)-2-(((S)-1-methylpyrrolidin-2-yl)methoxy)quinazoline] | 10 to 100 | 100 to 1000
CN1CCC[C@H]1COc1nc(N2C[C@H]3CC[C@@H](C2)N3)c2ccc(Nc3n[nH]c4ccccc34)cc2n1 [P-0289, 4-((1R,5S)-3,8-diazabicyclo[3.2.1]octan-3-yl)-N-(1H-indazol-3-yl)-2-(((S)-1-methylpyrrolidin-2-yl)methoxy)quinazolin-7-amine] | 10 to 100 | 10 to 100
CN1CCC[C@H]1COc1nc(N2C[C@H]3CC[C@@H](C2)N3)c2ccc(-c3c[nH]c4cccc(Cl)c34)cc2n1 [P-0255, 4-((1R,5S)-3,8-diazabicyclo[3.2.1]octan-3-yl)-7-(4-chloro-1H-indol-3-yl)-2-(((S)-1-methylpyrrolidin-2-yl)methoxy)quinazoline] | 10 to 100 | 10 to 100
CN1CCC[C@H]1COc1nc(N2[C@@H]3CC[C@H]2CN(C(=O)NC2COCC2(C)C)C3)c2ccc(-c3cc(O)cc4ccccc34)cc2n1 (stereo partly drawn) [P-0212, (1R,5S)-N-(4,4-dimethyltetrahydrofuran-3-yl)-8-(7-(3-hydroxynaphthalen-1-yl)-2-(((S)-1-methylpyrrolidin-2-yl)methoxy)quinazolin-4-yl)-3,8-diazabicyclo[3.2.1]octane-3-carboxamide] | 10 to 100 | 10 to 100
CN1CCC[C@H]1COc1nc(N2C[C@H]3CC[C@@H](C2)N3C(=O)CC#N)c2cc(F)c(-c3cc(O)cc4ccccc34)c(F)c2n1 [P-0464, 3-((1R,5S)-3-(6,8-difluoro-7-(3-hydroxynaphthalen-1-yl)-2-(((S)-1-methylpyrrolidin-2-yl)methoxy)quinazolin-4-yl)-3,8-diazabicyclo[3.2.1]octan-8-yl)-3-oxopropanenitrile] | 10 to 100 | 0.0001 to 10
CN1CCC[C@H]1COc1nc(N2[C@@H]3CC[C@H]2CNC3)c2ccc(-c3c(N)cccc3Cl)cc2n1 [P-0300, 2-(4-((1R,5S)-3,8-diazabicyclo[3.2.1]octan-8-yl)-2-(((S)-1-methylpyrrolidin-2-yl)methoxy)quinazolin-7-yl)-3-chloroaniline] | 10 to 100 | 10 to 100
CN1CCC[C@H]1COc1nc(N2[C@@H]3CC[C@H]2CN(C(=O)CNC(N)=O)C3)c2ccc(-c3cc(O)cc4ccccc34)cc2n1 [P-0317, 1-(2-((1R,5S)-8-(7-(3-hydroxynaphthalen-1-yl)-2-(((S)-1-methylpyrrolidin-2-yl)methoxy)quinazolin-4-yl)-3,8-diazabicyclo[3.2.1]octan-3-yl)-2-oxoethyl)urea] | 10 to 100 | 10 to 100
CN1C(=O)C(CC(=O)N2[C@@H]3CC[C@H]2CN(c2nc(OCC45CCCN4CCC5)nc4c(F)c(-c5cc(O)cc6ccccc56)ccc24)C3)N(C)C1=O (stereo partly drawn) [P-0386, 5-(2-((1R,5S)-3-(8-fluoro-7-(3-hydroxynaphthalen-1-yl)-2-((tetrahydro-1H-pyrrolizin-7a(5H)-yl)methoxy)quinazolin-4-yl)-3,8-diazabicyclo[3.2.1]octan-8-yl)-2-oxoethyl)-1,3-dimethylimidazolidine-2,4-dione] | 0.0001 to 10 | 0.0001 to 10
Cc1n[nH]c(C)c1-c1ccc2c(N3C[C@H]4CC[C@@H](C3)N4)nc(OC[C@@H]3CCCN3C)nc2c1 [P-0176, 4-((1R,5S)-3,8-diazabicyclo[3.2.1]octan-3-yl)-7-(3,5-dimethyl-1H-pyrazol-4-yl)-2-(((S)-1-methylpyrrolidin-2-yl)methoxy)quinazoline] | 100 to 1000 | 100 to 1000
CN1CCC[C@H]1COc1nc(N2C[C@H]3CC[C@@H](C2)N3C(=O)C(O)CO)c2ccc(-c3cc(O)cc4ccccc34)c(F)c2n1 (stereo partly drawn) [P-0404, 1-((1R,5S)-3-(8-fluoro-7-(3-hydroxynaphthalen-1-yl)-2-(((S)-1-methylpyrrolidin-2-yl)methoxy)quinazolin-4-yl)-3,8-diazabicyclo[3.2.1]octan-8-yl)-2,3-dihydroxypropan-1-one] | 0.0001 to 10 | 10 to 100

The remaining lines, values ahead:

IC50 [1] [µM] | IC50 [2] [µM] | SMILES
0.0001 to 10 | 0.0001 to 10 | CN1CCC[C@H]1COc1nc(N2C[C@H]3CC[C@@H](C2)N3S(=O)(=O)N2CCOC2=O)c2ccc(-c3cc(O)cc4ccccc34)c(F)c2n1 [P-0377, 3-(((1R,5S)-3-(8-fluoro-7-(3-hydroxynaphthalen-1-yl)-2-(((S)-1-methylpyrrolidin-2-yl)methoxy)quinazolin-4-yl)-3,8-diazabicyclo[3.2.1]octan-8-yl)sulfonyl)oxazolidin-2-one]
0.0001 to 10 | 10 to 100 | CN1CCC[C@H]1COc1nc(N2C[C@H]3CC[C@@H](C2)N3)c2ccc(-c3cc(N)cc4ccccc34)cc2n1 [P-0340, 4-(4-((1R,5S)-3,8-diazabicyclo[3.2.1]octan-3-yl)-2-(((S)-1-methylpyrrolidin-2-yl)methoxy)quinazolin-7-yl)naphthalen-2-amine]
0.0001 to 10 | 10 to 100 | CN1CCc2c(cccc2Oc2nc(N3C[C@H]4CC[C@@H](C3)N4)c3cc(Cl)c(-c4c(O)cccc4F)c(F)c3n2)C1 [P-0333, 2-(4-((1R,5S)-3,8-diazabicyclo[3.2.1]octan-3-yl)-6-chloro-8-fluoro-2-((2-methyl-1,2,3,4-tetrahydroisoquinolin-5-yl)oxy)quinazolin-7-yl)-3-fluorophenol]
0.0001 to 10 | 0.0001 to 10 | CN(C)CCCC(=O)N1[C@@H]2CC[C@H]1CN(c1nc(OCC34CCCN3CCC4)nc3c(F)c(-c4cc(O)cc5ccccc45)ccc13)C2 [P-0146, 4-(dimethylamino)-1-((1R,5S)-3-(8-fluoro-7-(3-hydroxynaphthalen-1-yl)-2-((tetrahydro-1H-pyrrolizin-7a(5H)-yl)methoxy)quinazolin-4-yl)-3,8-diazabicyclo[3.2.1]octan-8-yl)butan-1-one]
0.0001 to 10 | 10 to 100 | CN1CCC[C@H]1COc1nc(N2CCC3CCC(C2)N3)c2cc(Cl)c(-c3cc(O)cc4ccccc34)c(F)c2n1 (stereo partly drawn) [P-0046, 4-(4-(3,9-diazabicyclo[4.2.1]nonan-3-yl)-6-chloro-8-fluoro-2-(((S)-1-methylpyrrolidin-2-yl)methoxy)quinazolin-7-yl)naphthalen-2-ol]
0.0001 to 10 | 0.0001 to 10 | CN1CCC[C@H]1COc1nc(N2CC3CCCC2CN3C(=O)NC2CCOC2)c2ccc(-c3cc(O)cc4ccccc34)c(F)c2n1 (stereo partly drawn) [P-0298, 8-(8-fluoro-7-(3-hydroxynaphthalen-1-yl)-2-(((S)-1-methylpyrrolidin-2-yl)methoxy)quinazolin-4-yl)-N-(tetrahydrofuran-3-yl)-6,8-diazabicyclo[3.2.2]nonane-6-carboxamide]
0.0001 to 10 | 100 to 1000 | Cc1cccc2c1N(c1ccc3c(N4C[C@H]5CC[C@@H](C4)N5)nc(OCC45CCCN4CCC5)nc3c1F)CC(O)C2 (stereo partly drawn) [P-0454, 1-(4-((1R,5S)-3,8-diazabicyclo[3.2.1]octan-3-yl)-8-fluoro-2-((tetrahydro-1H-pyrrolizin-7a(5H)-yl)methoxy)quinazolin-7-yl)-8-methyl-1,2,3,4-tetrahydroquinolin-3-ol]
0.0001 to 10 | 10 to 100 | OCC1(COc2nc(N3C[C@H]4CC[C@@H](C3)N4)c3ccc(-c4cc(O)cc5ccccc45)c(F)c3n2)COC1 [P-0613, 4-(4-((1R,5S)-3,8-diazabicyclo[3.2.1]octan-3-yl)-8-fluoro-2-((3-(hydroxymethyl)oxetan-3-yl)methoxy)quinazolin-7-yl)naphthalen-2-ol]
0.0001 to 10 | 10 to 100 | CC(C)(COc1nc(N2C[C@H]3CC[C@@H](C2)N3)c2ccc(-c3cc(O)cc4ccccc34)c(F)c2n1)NC(N)=O [P-0619, 1-(1-((4-((1R,5S)-3,8-diazabicyclo[3.2.1]octan-3-yl)-8-fluoro-7-(3-hydroxynaphthalen-1-yl)quinazolin-2-yl)oxy)-2-methylpropan-2-yl)urea]
0.0001 to 10 | 10 to 100 | CN1CCC[C@H]1COc1nc(N2C[C@H]3CC[C@@H](C2)N3)c2cc(F)c(-c3c(O)cccc3F)c(F)c2n1 [P-0302, 2-(4-((1R,5S)-3,8-diazabicyclo[3.2.1]octan-3-yl)-6,8-difluoro-2-(((S)-1-methylpyrrolidin-2-yl)methoxy)quinazolin-7-yl)-3-fluorophenol]
0.0001 to 10 | 0.0001 to 10 | CN(C)c1cccc(COc2nc(N3C[C@H]4CC[C@@H](C3)N4)c3cc(Cl)c(-c4c(O)cccc4F)c(F)c3n2)c1 [P-0364, 2-(4-((1R,5S)-3,8-diazabicyclo[3.2.1]octan-3-yl)-6-chloro-2-((3-(dimethylamino)benzyl)oxy)-8-fluoroquinazolin-7-yl)-3-fluorophenol]
0.0001 to 10 | 10 to 100 | CNC(=O)C(C)(C)COc1nc(N2C[C@H]3CC[C@@H](C2)N3)c2ccc(-c3cc(O)cc4ccccc34)c(F)c2n1 [P-0621, 3-((4-((1R,5S)-3,8-diazabicyclo[3.2.1]octan-3-yl)-8-fluoro-7-(3-hydroxynaphthalen-1-yl)quinazolin-2-yl)oxy)-N,2,2-trimethylpropanamide]
